# Measurements reported in article PMC8805605, “Discovery of Dimeric Arylsulfonamides as Potent ADAM8 Inhibitors” (ACS Medicinal Chemistry Letters, 2021).
# What was measured:
# Assay type in all cases: biochemical
# ADAM17 = target: T1, ADAM17 (Homo sapiens, UniProt P78536); assay: ADAM17 fluorometric inhibition assay; details: recombinant enzyme, mean of three independent experiments in duplicate, read-out: In vitro inhibitory activity IC50 on ADAM17
# T1 construct: kind gift of Franka Scharfenberg, University of Kiel
# T1 sequence (P78536 215-824, species assumed): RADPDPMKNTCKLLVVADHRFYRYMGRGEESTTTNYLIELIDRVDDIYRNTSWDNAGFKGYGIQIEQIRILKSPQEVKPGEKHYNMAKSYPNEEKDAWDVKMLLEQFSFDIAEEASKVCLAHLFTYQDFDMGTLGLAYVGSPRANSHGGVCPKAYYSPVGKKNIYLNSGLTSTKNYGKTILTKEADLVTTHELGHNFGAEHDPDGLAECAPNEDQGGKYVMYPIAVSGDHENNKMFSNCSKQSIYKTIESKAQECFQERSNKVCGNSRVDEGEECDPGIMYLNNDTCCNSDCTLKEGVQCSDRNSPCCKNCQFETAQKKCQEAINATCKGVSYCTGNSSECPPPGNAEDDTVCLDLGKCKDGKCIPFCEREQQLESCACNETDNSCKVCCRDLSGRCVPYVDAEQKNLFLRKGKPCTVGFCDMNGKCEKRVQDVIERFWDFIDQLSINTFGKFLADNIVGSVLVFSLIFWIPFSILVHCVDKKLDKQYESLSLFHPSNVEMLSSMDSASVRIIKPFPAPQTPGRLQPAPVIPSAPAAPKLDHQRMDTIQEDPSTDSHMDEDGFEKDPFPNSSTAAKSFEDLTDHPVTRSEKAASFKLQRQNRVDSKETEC
# Experimental: (§1) The newly synthesized bivalent derivatives 1–3 were then tested in vitro on human recombinant ADAM8 in comparison with JG26 by a fluorometric assay. The inhibitory activity against a panel of MMPs and ADAM10/17 was determined as well to assess their selectivity profile.
# (§2) (RFU). Percent of inhibition was calculated from control reactions without the inhibitor. IC50 was determined using the formula: v i/v o = 1/(1 + [I]/ IC50), where v i is the initial velocity of substrate cleavage in the presence of the inhibitor at concentration [I] and v o is the initial velocity in the absence of the inhibitor. Results were analyzed using SoftMax Pro software (version 5.4.3, Molecular Devices, Sunnyvale, CA) and Prism Software version 5.0 (GraphPad Software, Inc., La Jolla, CA, USA).
# (§3) ADAM8 and ADAM17 inhibition assays
# (§4) Recombinant ADAM8 and ADAM17 (kind gift of Franka Scharfenberg, University of Kiel) were diluted in assay buffer (25 mM Tris HCl, pH 8.0. 6x10-4 % Brij, 10 mM CaCl2, 10 mM ZnCl2) to a working concentration of 250 ng and incubated with inhibitors for 45 min in a total volume of 50 µL.
# (§5) The fluorescent substrate PepDAB1310 was added in a concentration of 10 µM (in a volume of 50 µL). […]
# MMP-9 = target: T2, MMP-9 (Homo sapiens, UniProt P14780); assay: MMP-9 fluorometric inhibition assay; details: mean of three independent experiments in duplicate, read-out: In vitro inhibitory activity IC50 on MMP-9
# T2 construct: purchased Calbiochem (Merck-Millipore)
# T2 sequence (P14780 107-707 limits assumed, species assumed): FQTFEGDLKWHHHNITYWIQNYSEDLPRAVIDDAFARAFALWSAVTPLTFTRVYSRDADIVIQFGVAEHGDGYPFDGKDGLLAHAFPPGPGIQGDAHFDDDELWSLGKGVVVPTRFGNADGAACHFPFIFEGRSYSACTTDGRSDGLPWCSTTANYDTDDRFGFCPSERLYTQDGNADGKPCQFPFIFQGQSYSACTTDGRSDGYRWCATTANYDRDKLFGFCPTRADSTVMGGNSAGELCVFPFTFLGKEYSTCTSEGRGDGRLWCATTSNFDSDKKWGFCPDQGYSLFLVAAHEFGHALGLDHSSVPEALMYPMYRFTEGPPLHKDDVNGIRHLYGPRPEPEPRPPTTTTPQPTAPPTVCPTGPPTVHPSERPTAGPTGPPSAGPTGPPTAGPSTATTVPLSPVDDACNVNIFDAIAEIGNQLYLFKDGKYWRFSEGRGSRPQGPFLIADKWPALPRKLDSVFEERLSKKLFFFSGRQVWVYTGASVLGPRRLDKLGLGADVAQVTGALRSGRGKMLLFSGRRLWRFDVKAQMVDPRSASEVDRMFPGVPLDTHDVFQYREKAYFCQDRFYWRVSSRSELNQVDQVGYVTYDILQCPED
# Experimental: The newly synthesized bivalent derivatives 1–3 were then tested in vitro on human recombinant ADAM8 in comparison with JG26 by a fluorometric assay. The inhibitory activity against a panel of MMPs and ADAM10/17 was determined as well to assess their selectivity profile. […]
# VI. Biological Activity on Isolated Enzymes
# MMP and ADAM10 inhibition assays.
# Recombinant human MMP-14 catalytic domain was a kind gift of Prof. Gillian Murphy (Department of […]
# Oncology, University of Cambridge, UK). Pro-MMP-1, pro-MMP-2, and pro-MMP-9, were purchased […]
# from Calbiochem (Merck-Millipore). Pro-MMP-12 and ADAM10 were purchased from R&D Systems.
# Proenzymes were activated immediately prior to use with p-aminophenylmercuric acetate (APMA 2 […]
# mM for 1 h at 37°C for MMP-2 and MMP-1, 1 mM for 1 h at 37°C for MMP-9). Pro-MMP-12 was […]
# auto activated by incubating in the fluorometric assay buffer (FAB: Tris 50 mM, pH = 7.5, NaCl 150 […]
# mM, CaCl2 10 mM, Brij 35 0.05% and DMSO 1%) for 30 h at 37°C. For assay measurements, each […]
# inhibitor stock solution (DMSO, 10 mM) was further diluted in FAB at seven different concentrations.
# Activated enzyme (final concentration 0.56 nM for MMP-2, 1.3 nM for MMP-9, 1.0 nM for MMP- […]
# 14cd, 2.0 nM for MMP-1, 2.3 nM for MMP-12 and 20 nM for ADAM10) and inhibitor solutions were […]
# incubated in the assay buffer for 3 h at 25 °C. ADAM10 was incubated for 1 h at 37°C in a different […]
# buffer at pH 9 (Tris 25 mM, ZnCl2 25 µM, Brij-35 0.005 %). After the addition of 200 µM solution of […]
# the fluorogenic substrate Mca-Lys-Pro-Leu-Gly-Leu-Dap(Dnp)-Ala-Arg-NH2 (Bachem) for all the […]
# enzymes in DMSO (final concentration 2 µM for all enzymes, 10 µM for ADAM10), the hydrolysis […]
# was monitored every 10 sec. for 15 min. recording the increase in fluorescence (λ ex = 325 nm, λ em = […]
# 400 nm) using a Molecular Devices SpectraMax Gemini XPS plate reader. The assays were performed […]
# in triplicate in a total volume of 200 μL per well in 96-well microtitre plates (Corning, black, NBS).
# Control wells lack inhibitor. The MMP inhibition activity was expressed in relative fluorescent units […]
# as §2, with “USA). […]” for “USA).”
# human recombinant ADAM8 = target: T3, human recombinant ADAM8 (Homo sapiens, UniProt P78325); assay: ADAM8 fluorometric inhibition assay; details: for IC50: human recombinant enzyme, fluorometric assay, mean of three independent experiments in duplicate, read-out: In vitro inhibitory activity IC50 on ADAM8
# T3 construct: kind gift of Franka Scharfenberg, University of Kiel
# T3 sequence (P78325 17-824): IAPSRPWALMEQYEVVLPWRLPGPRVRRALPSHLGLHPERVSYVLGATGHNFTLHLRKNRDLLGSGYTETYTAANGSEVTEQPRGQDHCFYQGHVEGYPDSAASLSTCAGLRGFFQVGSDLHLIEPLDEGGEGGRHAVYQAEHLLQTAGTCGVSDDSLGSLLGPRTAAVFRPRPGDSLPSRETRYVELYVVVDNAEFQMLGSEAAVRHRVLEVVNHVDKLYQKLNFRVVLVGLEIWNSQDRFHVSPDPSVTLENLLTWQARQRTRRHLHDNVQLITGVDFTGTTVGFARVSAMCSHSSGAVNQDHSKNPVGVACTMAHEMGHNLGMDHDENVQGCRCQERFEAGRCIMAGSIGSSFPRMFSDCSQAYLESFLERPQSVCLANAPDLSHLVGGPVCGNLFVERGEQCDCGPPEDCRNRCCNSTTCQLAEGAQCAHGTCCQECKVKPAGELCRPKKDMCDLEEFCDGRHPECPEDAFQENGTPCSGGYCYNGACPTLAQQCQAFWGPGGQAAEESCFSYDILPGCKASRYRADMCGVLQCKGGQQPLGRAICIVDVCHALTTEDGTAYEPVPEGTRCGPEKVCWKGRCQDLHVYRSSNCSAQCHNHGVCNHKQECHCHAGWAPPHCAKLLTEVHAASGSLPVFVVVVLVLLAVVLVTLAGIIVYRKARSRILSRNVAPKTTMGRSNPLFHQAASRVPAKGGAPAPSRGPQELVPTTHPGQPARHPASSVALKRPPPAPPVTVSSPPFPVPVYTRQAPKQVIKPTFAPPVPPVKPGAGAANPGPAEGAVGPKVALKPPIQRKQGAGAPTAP
# Experimental: as §1, §2, §3, §4, §5
SMILES,IC50 (ADAM17) [nM],IC50 (MMP-9) [nM],IC50 (human recombinant ADAM8) [nM],Times less active than compound 1 on ADAM8 (human recombinant ADAM8; ratio of ADAM8 IC50 values) [times],Selectivity for ADAM8 over ADAM10 (human recombinant ADAM8; ratio of IC50 values ADAM10/ADAM8) [fold]
O=C(NCCC[C@@H](NS(=O)(=O)c1ccc(OCc2cc(Br)cc(Br)c2)cc1)C(=O)NO)NCCC[C@@H](NS(=O)(=O)c1ccc(OCc2cc(Br)cc(Br)c2)cc1)C(=O)NO [Compound 3],55,13500,567,14,
"NC(=O)NCCC[C@@H](NS(=O)(=O)c1ccc(OCc2cc(Br)cc(Br)c2)cc1)C(=O)NO [JG26, reference compound]",1.9,1630,12,,
O=C(NCCC[C@@H](NS(=O)(=O)c1ccc(OCc2cc(Br)cc(Br)c2)cc1)C(=O)NO)c1cccc(C(=O)NCCC[C@@H](NS(=O)(=O)c2ccc(OCc3cc(Br)cc(Br)c3)cc2)C(=O)NO)c1 [Compound 2],24,8800,73,,
O=C(CCCNC(=O)c1cccc(C(=O)NCCCC(=O)NCCC[C@@H](NS(=O)(=O)c2ccc(OCc3cc(Br)cc(Br)c3)cc2)C(=O)NO)c1)NCCC[C@@H](NS(=O)(=O)c1ccc(OCc2cc(Br)cc(Br)c2)cc1)C(=O)NO [Compound 1],52,3320,41,,740
